Like-named read-outs stand apart in the source and are kept apart here.
Tests used:
Miglustat toxicokinetics = format: in vivo, cynomolgus monkey; conditions: for AUC(0-t) / Cmax / half-life / Tmax / Vd/F: cynomolgus monkey, plasma; for Vd/F: read-out: Vz/F
Protocol: Analysis of miglustat concentration was carried out using a LC-MS/MS method analogous to that described for analysis of duvoglustat concentration by Richie Khanna, Allan C. Powe Jr., Yi Lun, Rebecca Soska, Jessie Feng, Rohini Dhulipala, Michelle Frascella, Anadina Garcia, Lee J. Pellegrino, Su Xu, Nastry Brignol, Matthew J. Toth, Hung V. Do, David J. Lockhart, Brandon A. Wustman, Kenneth J. Valenzano. […] Miglustat TK parameters were estimated by the log-linear trapezoidal rule.

[1] = Model-derived miglustat/ATB200 steady state exposure (AUC) ratio; design: species or system mouse; conditions: 10 mg/kg miglustat co-administered with 20 mg/kg ATB200
Description: Pharmacokinetic models (Example 8) are used to predict exposure to acid α-glucosidase and miglustat, time-matched to the values for tissue lysosomal glycogen levels in Table 5.

[2] = Previous studies in non-human primates (exposure); conditions: in vivo, po, 175 mg/kg
in vivo = conditions: both, Cambodian origin, cynomolgus monkey, in vivo
Protocol: Animals were acclimated to the study room for 18 (females) to 19 (males) days. On the final day of acclimation, animals weighed between 2.243 kg and 5.413 kg and were 2 to 3 years of age.
ATB200 is formulated in 25 mM sodium phosphate buffer, pH 6 containing 2.92 mg/mL sodium chloride, 20 mg/mL mannitol, and 0.5 mg/mL polysorbate 80 (formulation buffer). Test article (ATB200 or miglustat) and control article/vehicle (formulation buffer) were administered once every other week for 13 weeks, starting on Day 1 and ending on Day 85. ATB200 and the control article/vehicle were administered by 2 hour (±10 minute) intravenous (IV) infusion at 0 mg/kg (Group 1, control article), 50 mg/kg (Group 2), or 100 mg/kg (Groups 3 and 5). Miglustat was administered nasogastrically in sterile water for injection, USP, at 25 mg/kg (Group 2) or 175 mg/kg (Groups 3 and 4), 30 minutes (±2 minutes) prior to the start of the infusion for ATB200, when given in combination. The dosing volume across all groups was 10 mL/kg.
Parameters assessed during the in-life phase of the study included body weights, food consumption, clinical observations, detailed clinical observations, physical examinations, electrocardiography, ophthalmic assessments, clinical pathology (hematology, coagulation, serum chemistry), anti-drug antibody (ADA) assessment, neutralizing ADA assessment, urinalysis, and plasma toxicokinetics (TK) for miglustat and ATB200 activity and total protein. Terminal necropsy of animals was performed on Day 99 (14 days after the last dose administration). At necropsy, gross observations and organ weights were recorded, and tissues were collected for microscopic examination.

acid α-glucosidase = acid α-glucosidase (Homo sapiens, UniProt P10253); assay: Inhibition of acid α-glucosidase activity; format: biochemical
Protocol: Pharmacokinetic models (Example 8) were used to predict the length of time that the plasma or tissue concentrations of duvoglustat (a surrogate of miglustat) would remain above the IC50 (the concentration giving 50% of maximum inhibition of acid α-glucosidase activity) of miglustat in plasma and lysosome. Inhibition of acid α-glucosidase activity is determined by methods described previously (Flanagan J J, Rossi B, Tang K, Wu X, Mascioli K, et al. (2009) “The pharmacological chaperone 1-deoxynojirimycin increases the activity and lysosomal trafficking of multiple mutant forms of acid alpha-glucosidase.” Hum Mutat 30: 1683-1692).

[3] = Population PK model of miglustat, oral dosing in Gaa knockout mice; format: in vivo, mouse; conditions: typical value
Protocol: A population PK model of miglustat is constructed based on oral dosing in Gaa knockout (KO) mice. The model has a residual additive error of 0.475 ng/m L.

[4] = Cambodian origin, po, 175 mg/kg, Day 85, 100 mg/kg ATB200 + 175 mg/kg miglustat
[5] = Cambodian origin, po, 175 mg/kg, Day 85, 175 mg/kg miglustat monotherapy
[6] = po, 25 mg/kg, Day 1, 50 mg/kg ATB200 + 25 mg/kg miglustat
[7] = po, 25 mg/kg, Day 85, 50 mg/kg ATB200 + 25 mg/kg miglustat
[8] = po, 175 mg/kg, Day 1, 100 mg/kg ATB200 + 175 mg/kg miglustat
[9] = po, 175 mg/kg, Day 1, 175 mg/kg miglustat monotherapy
[10] = po, 175 mg/kg, Day 85, 100 mg/kg ATB200 + 175 mg/kg miglustat
[11] = po, 175 mg/kg, Day 85, 175 mg/kg miglustat monotherapy

## CCCCN1C[C@H](O)[C@@H](O)[C@H](O)[C@H]1CO [miglustat, (2R,3R,4R,5S)-1-butyl-2-(hydroxymethyl)piperidine-3,4,5-triol]
Miglustat toxicokinetics; [4]
  AUC(0-t): 216 µg·h/mL
  Cmax: 22000 ng/mL
Miglustat toxicokinetics; [5]
  AUC(0-t): 204 µg·h/mL
  Cmax: 14700 ng/mL
Miglustat toxicokinetics; Day 1, 50 mg/kg ATB200 + 25 mg/kg miglustat
  CLT/F: 1.92 L/h
Miglustat toxicokinetics; Day 1, 100 mg/kg ATB200 + 175 mg/kg miglustat
  CLT/F: 3.22 L/h
Miglustat toxicokinetics; Day 1, 175 mg/kg miglustat monotherapy
  CLT/F: 3.67 L/h
Miglustat toxicokinetics; Day 85, 50 mg/kg ATB200 + 25 mg/kg miglustat
  CLT/F: 1.99 L/h
Miglustat toxicokinetics; Day 85, 100 mg/kg ATB200 + 175 mg/kg miglustat
  CLT/F: 3.62 L/h
Miglustat toxicokinetics; Day 85, 175 mg/kg miglustat monotherapy
  CLT/F: 3.49 L/h
Miglustat toxicokinetics; both sexes, oral, males and females combined, Days 1 and 85, across groups, read-out: mean t1/2
  half-life: 6.66 to 8.23 h
Miglustat toxicokinetics; oral, postdose, across groups and days
  Tmax: 2 to 4 h
Miglustat toxicokinetics; [6]
  AUC(0-t): 47.3 µg·h/mL
  Cmax: 7430 ng/mL
  Tmax: 2.06 h
  Vd/F: 20.5 L
Miglustat toxicokinetics; po, 25 mg/kg, Day 1, 50 mg/kg ATB200 + 25 mg/kg miglustat, read-out: t1/2 (converted)
  half-life: 7.44 h
Miglustat toxicokinetics; [7]
  AUC(0-t): 49.1 µg·h/mL
  Cmax: 7510 ng/mL
  Tmax: 2.88 h
  Vd/F: 23.3 L
Miglustat toxicokinetics; po, 25 mg/kg, Day 85, 50 mg/kg ATB200 + 25 mg/kg miglustat, read-out: t1/2 (converted)
  half-life: 8.23 h
Miglustat toxicokinetics; [8]
  AUC(0-t): 182 µg·h/mL
  Cmax: 20400 ng/mL
  Tmax: 2.69 h
  Vd/F: 32.3 L
Miglustat toxicokinetics; po, 175 mg/kg, Day 1, 100 mg/kg ATB200 + 175 mg/kg miglustat, read-out: t1/2 (converted)
  half-life: 6.85 h
Miglustat toxicokinetics; [9]
  AUC(0-t): 173 µg·h/mL
  Cmax: 16400 ng/mL
  Vd/F: 35.9 L
Miglustat toxicokinetics; po, 175 mg/kg, Day 1, 175 mg/kg miglustat monotherapy, read-out: t1/2 (converted)
  half-life: 6.86 h
Miglustat toxicokinetics; [10]
  Tmax: 3.56 h
  Vd/F: 39.1 L
Miglustat toxicokinetics; po, 175 mg/kg, Day 85, 100 mg/kg ATB200 + 175 mg/kg miglustat, read-out: t1/2 (converted)
  half-life: 7.86 h
Miglustat toxicokinetics; [11]
  Tmax: 4.13 h
  Vd/F: 33.8 L
Miglustat toxicokinetics; po, 175 mg/kg, Day 85, 175 mg/kg miglustat monotherapy, read-out: t1/2 (converted)
  half-life: 6.66 h
[1]
  miglustat/ATB200 AUC ratio: 0.01159
[2]
  AUC: 196 µg·h/mL
In vivo
  NOAEL at 13 weeks: 175 mg/kg
Acid α-glucosidase; pH of plasma (pH 7.0)
  IC50, inhibition of acid α-glucosidase activity: 0.17 µg/mL
Acid α-glucosidase; pH of the lysosomal compartment (pH 5.2)
  IC50: 1720 nM
[3]
  Central volume of distribution (Vc): 4.55 mL
  Peripheral clearance (CLd): 4.57 mL/h
  Peripheral volume of distribution (V2): 19.6 mL
  Rate constant of absorption (Ka): 2.09 h⁻¹
  Systemic clearance (CL): 43.3 mL/h

— US20250381254A1, “Augmented Acid Alpha-Glucosidase For The Treatment Of Pompe Disease” (Amicus Therapeutics, Inc., priority 2015, published 2025)
